These results are taken from patent US7375180B2, “Methods and compositions related to IRM compounds and Toll-like receptor 8” (3M Innovative Properties Company, priority 2003, dated 2008).

Molecules are shown by their SMILES.

This assay concerns the target T1, TLR8 (Homo sapiens, UniProt Q9NR97).
T1 sequence (Q9NR97 27-1041): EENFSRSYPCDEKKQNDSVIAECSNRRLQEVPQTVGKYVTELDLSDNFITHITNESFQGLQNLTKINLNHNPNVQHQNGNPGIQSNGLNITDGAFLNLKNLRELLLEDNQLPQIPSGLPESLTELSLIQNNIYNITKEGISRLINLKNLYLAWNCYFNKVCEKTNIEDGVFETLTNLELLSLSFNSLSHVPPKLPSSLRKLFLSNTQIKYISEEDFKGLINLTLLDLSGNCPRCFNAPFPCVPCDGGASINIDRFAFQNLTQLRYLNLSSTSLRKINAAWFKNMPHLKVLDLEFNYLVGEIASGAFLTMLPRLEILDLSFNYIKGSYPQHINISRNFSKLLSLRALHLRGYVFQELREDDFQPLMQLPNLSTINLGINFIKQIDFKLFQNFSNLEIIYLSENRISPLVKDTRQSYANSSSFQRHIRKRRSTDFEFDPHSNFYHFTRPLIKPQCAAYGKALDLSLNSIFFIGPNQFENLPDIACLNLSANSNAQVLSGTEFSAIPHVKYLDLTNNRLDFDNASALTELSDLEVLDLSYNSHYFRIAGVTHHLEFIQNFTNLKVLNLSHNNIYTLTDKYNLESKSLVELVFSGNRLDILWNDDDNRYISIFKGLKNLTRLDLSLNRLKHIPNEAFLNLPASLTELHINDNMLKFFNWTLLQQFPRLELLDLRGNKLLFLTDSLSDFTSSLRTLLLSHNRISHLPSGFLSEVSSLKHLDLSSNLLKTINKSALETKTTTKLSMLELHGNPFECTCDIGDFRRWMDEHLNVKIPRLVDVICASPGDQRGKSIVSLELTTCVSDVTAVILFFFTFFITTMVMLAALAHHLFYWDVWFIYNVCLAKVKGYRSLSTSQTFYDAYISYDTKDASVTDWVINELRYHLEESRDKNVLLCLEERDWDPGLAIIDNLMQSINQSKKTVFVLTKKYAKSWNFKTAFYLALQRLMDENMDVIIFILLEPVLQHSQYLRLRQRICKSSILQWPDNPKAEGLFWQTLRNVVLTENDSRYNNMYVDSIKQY
The experiment in a line: Dose dependent TLR8-mediated NF-κB-luciferase response in HEK293 cells transfected with TLR8 (Example 5). Type of assay: cell-based. More on the design: expressed in transfected cells; host or cells: HEK293 (ATCC CRL-1573), pIRES vector, G-418 selected, co-transfected with NFkB-luc reporter. The protocol: Twenty-four hours before transfection, HEK293 cells were adhered to a 10 cm dish (Corning 430167, Corning Inc., Corning, N.Y.) at 37° C., 8% CO2. The cells were co-transfected with (1) pIRES (BD Biosciences Clontech, Palo Alto, Calif.) either (a) unmodified (HEK293-vector) or (b) containing human TLR8 (HEK293-TLR8), and (2) NFkB-luc reporter (Stratagene, La Jolla, Calif.) in a 10:1 ratio with Fugene 6 transfection reagent (Roche Diagnostics Corp., Indianapolis, Ind.) following the manufacturer's instructions. The plates were incubated for 24 hours following transfection and then selected in G-418 (400 μg/mL) for two weeks. The G-418-resistant cells containing either the TLR8 or empty vector were expanded in HEK293 media supplemented with G-418 for stimulation experiments.
The transfected cells were plated in white opaque 96 well plates (Costar 3917, Corning Inc., Corning, N.Y.) at a concentration of 5×10^4 cells per well in 100 μL of HEK293 media and incubated at 37° C., 8% CO2 for 4 hours. The cells were stimulated with 1 μL of IRM compounds at 1 mM in DMSO (final IRM concentration of 10 μM) or 1 μL DMSO as a control. The plates were then incubated an additional 16 hours at 37° C., 5% CO2. Luminescence was measured on an LMAX luminometer (Molecular Devices Corp., Sunnyvale, Calif.).
HEK293 cells were transfected as described in Example 1. HEK293 cultures were incubated with IRM compound or a negative control compound (1,5-dihydro-1-(2-methylpropyl)-4H-imidazo[4,5-c]quinolin-4-one, U.S. Pat. No. 4,698,348, Example 71) at concentrations of 0.1 μM, 0.3 μM, 1.0 μM, 3.0 μM, 10 μM, or 30 μM, or a vehicle control. Cultures were otherwise incubated as described in Example 1. Luciferase signals were read in RLU (Relative Luciferase Units) as described in Example 1.

For `CCOCc1nc2c(N)nc3cc(-c4ccc(C(=O)N(C)OC)cc4)ccc3c2n1CC(C)(C)O` [IRM61, 4-[4-amino-2-ethoxymethyl-1-(2-hydroxy-2-methylpropyl)-1H-imidazo[4,5-c]quinolin-7-yl]-N-methoxy-N-methylbenzamide], the “Fold increase over vehicle” value (0.1 μM) stood at 1.0 fold; the “Fold increase over vehicle” value (0.3 μM) was 1.1 fold; the “Fold increase over vehicle” value (1.0 μM) amounted to 2.9 fold; the “Fold increase over vehicle” value (3.0 μM) came out at 6.7 fold; the “Fold increase over vehicle” value (10 μM) is reported as 10.3 fold; the “Fold increase over vehicle” value (30 μM) came out at 9.4 fold.
As for `CCOCc1nc2c(N)nc3c(c2n1NC(C)C)CCCC3` [IRM60, 2-ethoxymethyl-N^1-isopropyl-6,7,8,9-tetrahydro-1H-imidazo[4,5-c]quinoline-1,4-diamine], the “Fold increase over vehicle” value stood at 1.1 fold (0.1 μM); 1.0 fold (0.3 μM); 1.1 fold (1.0 μM); 2.7 fold (3.0 μM); 6.2 fold (10 μM); 9.1 fold (30 μM).
As for `CCCNC(=O)NC(C)(C)Cn1c(COCC)nc2c(N)nc3ccccc3c21` [IRM55, 1-[2-(4-amino-2-ethoxymethyl-1H-imidazo[4,5-c]quinolin-1-yl)-1,1-dimethylethyl]-3-propylurea], the “Fold increase over vehicle” value (0.1 μM) is reported as 0.7 fold; the “Fold increase over vehicle” value (0.3 μM) amounted to 1.1 fold; the “Fold increase over vehicle” value (1.0 μM) is 1.0 fold; the “Fold increase over vehicle” value (3.0 μM) is given as 2.9 fold; the “Fold increase over vehicle” value (10 μM) turned out to be 7.2 fold; the “Fold increase over vehicle” value (30 μM) is reported as 9.9 fold.
In the case of `CCCCc1nc2c(N)nc3ccccc3c2n1CC(C)(C)CNC(=O)N1CCOCC1` [IRM46, N-[3-(4-amino-2-butyl-1H-imidazo[4,5-c]quinolin-1-yl)-2,2-dimethylpropyl]morpholine-4-carboxamide], the “Fold increase over vehicle” value is, setting by setting: (0.1 μM) 0.9 fold; (0.3 μM) 1.1 fold; (1.0 μM) 1.4 fold; (3.0 μM) 1.7 fold; (10 μM) 3.9 fold; (30 μM) 7.3 fold.
In the case of `CCCCc1nc2c(N)nc3ccccc3c2n1CCCS(C)(=O)=O` [IRM40, 2-butyl-1-[3-(methylsulfonyl)propyl]-1H-imidazo[4,5-c]quinolin-4-amine], the “Fold increase over vehicle” value is, setting by setting: (0.1 μM) 1.0 fold; (0.3 μM) 0.9 fold; (1.0 μM) 0.9 fold; (3.0 μM) 1.3 fold; (10 μM) 3.1 fold; (30 μM) 16.4 fold.
For the molecule `CCc1nc2c(N)nc3cc(-c4ccncc4)ccc3c2n1CC(C)(C)O` [IRM59, 1-[4-amino-2-ethyl-7-(pyridin-4-yl)-1H-imidazo[4,5-c]quinolin-1-yl]-2-methylpropan-2-ol], the “Fold increase over vehicle” value was 1.0 fold (0.1 μM); 1.3 fold (0.3 μM); 2.1 fold (1.0 μM); 5.5 fold (3.0 μM); 9.5 fold (10 μM); 9.8 fold (30 μM).
In the case of `COCCc1nc2c(N)nc3cc(-c4cncc(CO)c4)ccc3c2n1CC(C)(C)O` [IRM49, 1-[4-amino-7-(5-hydroxymethylpyridin-3-yl)-2-(2-methoxyethyl)-1H-imidazo[4,5-c]quinolin-1-yl]-2-methylpropan-2-ol], the “Fold increase over vehicle” value reads like this: (0.1 μM) 1.1 fold; (0.3 μM) 1.4 fold; (1.0 μM) 2.0 fold; (3.0 μM) 3.8 fold; (10 μM) 7.0 fold; (30 μM) 15.5 fold.
In the case of `COCCc1nc2c(N)nc3c(c2n1CCOCCNC(=O)Nc1ccccc1)CCCC3` [IRM41, N-(2-{2-[4-amino-2-(methoxyethyl)-6,7,8,9-tetrahydro-1H-imidazo[4,5-c]quinolin-1-yl]ethoxy}ethyl)-n′-phenylurea], the “Fold increase over vehicle” value is 0.7 fold (0.1 μM); 0.9 fold (0.3 μM); 1.0 fold (1.0 μM); 3.3 fold (3.0 μM); 12.7 fold (10 μM); 25.4 fold (30 μM).
Consider `CCCCc1nc2c(N)nc3ccccc3c2n1CCS(=O)(=O)CC` [IRM42, 2-butyl-1-[2-(ethylsulfonyl)ethyl]-1H-imidazo[4,5-c]quinolin-4-amine], for which the “Fold increase over vehicle” value by setting is: (0.1 μM) 1.0 fold; (0.3 μM) 0.9 fold; (1.0 μM) 1.3 fold; (3.0 μM) 3.8 fold; (10 μM) 13.2 fold; (30 μM) 26.0 fold.
For the molecule `CCOCc1nc2c(N)nc3cc(-c4cccnc4)ccc3c2n1CC(O)CO` (stereo not drawn) [IRM57, 3-[4-amino-2-(ethoxymethyl)-7-(pyridin-3-yl)-1H-imidazo[4,5-c]quinolin-1-yl]propane-1,2-diol], the “Fold increase over vehicle” value is, setting by setting: (0.1 μM) 1.4 fold; (0.3 μM) 1.7 fold; (1.0 μM) 3.1 fold; (3.0 μM) 7.2 fold; (10 μM) 10.4 fold; (30 μM) 12.5 fold.
Regarding `CCCCc1nc2c(N)nc3ccccc3c2n1CCCNC(=O)N1CCOCC1` [IRM39, N-[3-(4-amino-2-butyl-1H-imidazo[4,5-c]quinolin-1-yl)propyl]morpholine-4-carboxamide], the “Fold increase over vehicle” value is, setting by setting: (0.1 μM) 0.9 fold; (0.3 μM) 1.1 fold; (1.0 μM) 1.2 fold; (3.0 μM) 1.5 fold; (10 μM) 6.8 fold; (30 μM) 18.0 fold.
As for `COCCc1nc2c(N)nc3ccccc3c2n1CCCCNC(=O)c1cnc2ccccc2c1` [IRM37, N-{4-[4-amino-2-(2-methoxyethyl)-1H-imidazo[4,5-c]quinolin-1-yl]butyl}quinoline-3-carboxamide], the “Fold increase over vehicle” value runs as follows: (0.1 μM) 0.7 fold; (0.3 μM) 0.9 fold; (1.0 μM) 1.0 fold; (3.0 μM) 3.2 fold; (10 μM) 5.2 fold; (30 μM) 11.8 fold.
`CCOCc1nc2c(N)nc3ccccc3c2n1CC(C)(C)NC(=O)NC(C)C` [IRM47, N-{2-[4-amino-2-(ethoxymethyl)-1H-imidazo[4,5-c]quinolin-1-yl]-1,1-dimethylethyl}-n′-isopropylurea]: the “Fold increase over vehicle” value runs as follows: (0.1 μM) 0.9 fold; (0.3 μM) 0.8 fold; (1.0 μM) 1.1 fold; (3.0 μM) 1.7 fold; (10 μM) 4.9 fold; (30 μM) 12.5 fold.
